Laboratory results reported in patent US20060063820A1, “2,6-dihalo-4-(3,3-dichloro-allyloxy)-benzylalcohole derivatives having insecticidal and acaricidal properties” (priority 2002, published 2006).
Where two headings read alike, the source gives them in different places. Each block holds one molecule with its values, some of them ahead of it.

Assays:
Spodoptera littoralis = test: Action against Spodoptera littoralis (sprayed soybean plants); assay type: in vivo; conditions: 72 h, read-out: percentage reduction in population and percentage reduction in feeding damage (% activity)
Protocol: Young soybean plants are sprayed with an aqueous emulsion spray mixture comprising 400 ppm of test compound and, after the spray-coating has dried, the plants are populated with 10 caterpillars of Spodoptera littoralis in the first stage and then placed in a plastics container. 3 days later, the percentage reduction in population and the percentage reduction in feeding damage (% activity) are determined by comparing the number of dead caterpillars and the feeding damage on the treated plants with that on untreated plants.

Heliothis virescens = test: Action against Heliothis virescens caterpillars (sprayed soybean plants); assay type: in vivo; conditions: 144 h, read-out: percentage reduction in population and percentage reduction in feeding damage (% activity)
Protocol: (§1) Young soybean plants are sprayed with an aqueous emulsion spray mixture comprising 400 ppm of active ingredient. After the spray-coating has dried, the soybean plants are populated with 10 caterpillars of Heliothis virescens in the first stage and placed in a plastics container. Evaluation is made 6 days later. The percentage reduction in population and the percentage reduction in feeding damage (% activity) are determined by comparing the number of dead caterpillars and the feeding damage on the treated plants with that on the untreated plants.

Plutella xylostella = test: Action against Plutella xylostella caterpillars (sprayed cabbage plants); assay type: in vivo; conditions: 72 h, read-out: percentage reduction in population and percentage reduction in feeding damage (% activity)
Protocol: as §1, with “cabbage” for “soybean”, “Plutella xylostella” for “Heliothis virescens”, “third” for “first”, “3” for “6”

[1] = 400 ppm spray mixture, soybean plants, caterpillars in the first stage, 3 days later
[2] = 400 ppm spray mixture, soybean plants, caterpillars in the first stage, evaluation 6 days later
[3] = 400 ppm spray mixture, cabbage plants, caterpillars in the third stage, evaluation 3 days later

SMILES: FC(F)(F)Oc1ccc(C2OCC(COCc3c(Cl)cc(OCC=C(Cl)Cl)cc3Cl)O2)cc1 (single isomer, unassigned) [Compound 2.3, 4-[2,6-dichloro-4-(3,3-dichloroallyloxy)-benzyloxymethyl]-2-(4-trifluoromethoxyphenyl)-[1,3]dioxolane]
inhibition at 400 ppm (Spodoptera littoralis; [1]): > 80% | inhibition at 400 ppm (Heliothis virescens; [2]): > 80% | inhibition at 400 ppm (Plutella xylostella; [3]): > 80%

SMILES: FC(F)(F)c1ccc(OCc2c(Cl)cc(OCC=C(Cl)Cl)cc2Cl)cc1 [Compound 1.2]
inhibition at 400 ppm (Spodoptera littoralis; [1]): > 80% | inhibition at 400 ppm (Heliothis virescens; [2]): > 80%

SMILES: C#CCOc1cccc(OCc2c(Cl)cc(OCC=C(Cl)Cl)cc2Cl)c1 [Compound 1.3]
inhibition at 400 ppm (Spodoptera littoralis): > 80% | inhibition at 400 ppm (Heliothis virescens): > 80% | inhibition at 400 ppm (Plutella xylostella): > 80%

SMILES: ClC(Cl)=CCOc1cc(Cl)c(COc2ccc3c(c2)OCO3)c(Cl)c1 [Compound 1.8]
inhibition at 400 ppm (Plutella xylostella): > 80%

SMILES: ClC(Cl)=CCOc1cc(Cl)c(COc2ccnc3cc(Cl)ccc23)c(Cl)c1 [Compound 1.12]
inhibition at 400 ppm (Spodoptera littoralis): > 80% | inhibition at 400 ppm (Heliothis virescens): > 80% | inhibition at 400 ppm (Plutella xylostella): > 80%

SMILES: FC(F)(F)c1cc(OCc2c(Cl)cc(OCC=C(Cl)Cl)cc2Cl)ccn1 [Compound 1.14]
inhibition at 400 ppm (Plutella xylostella; [3]): > 80%

SMILES: Cc1nsc(Oc2cccc(OCc3c(Cl)cc(OCC=C(Cl)Cl)cc3Cl)c2)n1 [Compound 1.21]
inhibition at 400 ppm (Plutella xylostella; [3]): > 80%

SMILES: ClC(Cl)=CCOc1cc(Cl)c(COCC2COC(c3ccc(Br)s3)O2)c(Cl)c1 (stereo not shown) [Compound 2.8]
inhibition at 400 ppm (Spodoptera littoralis; [1]): > 80% | inhibition at 400 ppm (Heliothis virescens; [2]): > 80% | inhibition at 400 ppm (Plutella xylostella; [3]): > 80%

SMILES: FC1(F)Oc2cccc(C3OCC(COCc4c(Cl)cc(OCC=C(Cl)Cl)cc4Cl)O3)c2O1 (stereo not shown) [Compound 2.10]
inhibition at 400 ppm (Spodoptera littoralis; [1]): > 80% | inhibition at 400 ppm (Heliothis virescens; [2]): > 80% | inhibition at 400 ppm (Plutella xylostella; [3]): > 80%

SMILES: O=[N+]([O-])c1cc(C2OCC(COCc3c(Cl)cc(OCC=C(Cl)Cl)cc3Cl)O2)cs1 (stereo not shown) [Compound 2.12]
inhibition at 400 ppm (Spodoptera littoralis; [1]): > 80% | inhibition at 400 ppm (Heliothis virescens; [2]): > 80% | inhibition at 400 ppm (Plutella xylostella; [3]): > 80%

SMILES: Cn1nc(C2OCC(COCc3c(Cl)cc(OCC=C(Cl)Cl)cc3Cl)O2)c(C(F)(F)F)c1Cl (stereo not shown) [Compound 2.15]
inhibition at 400 ppm (Spodoptera littoralis; [1]): > 80% | inhibition at 400 ppm (Heliothis virescens; [2]): > 80% | inhibition at 400 ppm (Plutella xylostella; [3]): > 80%

SMILES: N#Cc1c(Br)sc(C2OCC(COCc3c(Cl)cc(OCC=C(Cl)Cl)cc3Cl)O2)c1Cl (stereo not shown) [Compound 2.17]
inhibition at 400 ppm (Heliothis virescens; [2]): > 80% | inhibition at 400 ppm (Plutella xylostella; [3]): > 80%

SMILES: CC(C)Oc1ccc(C2(C(=O)OCc3c(Cl)cc(OCC=C(Cl)Cl)cc3Cl)CC2)cc1 [Compound 3.12]
inhibition at 400 ppm (Spodoptera littoralis; [1]): > 80% | inhibition at 400 ppm (Heliothis virescens; [2]): > 80% | inhibition at 400 ppm (Plutella xylostella; [3]): > 80%

SMILES: O=C(OCc1c(Cl)cc(OCC=C(Cl)Cl)cc1Cl)C1(c2ccc(OC(F)(F)F)cc2)CC1 [Compound 3.15]
inhibition at 400 ppm (Spodoptera littoralis; [1]): > 80% | inhibition at 400 ppm (Heliothis virescens; [2]): > 80% | inhibition at 400 ppm (Plutella xylostella; [3]): > 80%

melting point: 63 to 64 °C
SMILES: O=C(OCc1c(Cl)cc(OCC=C(Cl)Cl)cc1Cl)C1(c2ccc(F)cc2F)CC1 [Compound 3.16]

melting point: 107 to 108 °C
SMILES: O=C(OCc1c(Cl)cc(OCC=C(Cl)Cl)cc1Cl)C1(c2ccc([N+](=O)[O-])cc2)CC1 [Compound 3.17]

SMILES: C#COc1cccc(OCCOCc2c(Cl)cc(OCC=C(Cl)Cl)cc2Cl)c1 [Compound 4.4, 1,3-dichloro-5-(3,3-dichloroallyloxy)-2-[2-(3-ethynyloxy-phenoxy)-ethoxymethyl]-benzene]
inhibition at 400 ppm (Heliothis virescens; [2]): > 80% | inhibition at 400 ppm (Plutella xylostella; [3]): > 80%

melting point: 95 to 97 °C
SMILES: Cc1nsc(Oc2ccc(OCCOCc3c(Cl)cc(OCC=C(Cl)Cl)cc3Cl)cc2)n1 [Compound 4.10]

SMILES: FC(F)(F)c1ccc(OCCOCc2c(Cl)cc(OCC=C(Cl)Cl)cc2Cl)nc1 [Compound 4.11]
inhibition at 400 ppm (Spodoptera littoralis; [1]): > 80% | inhibition at 400 ppm (Heliothis virescens; [2]): > 80% | inhibition at 400 ppm (Plutella xylostella; [3]): > 80%

SMILES: FC(F)(F)c1ccc(COCc2c(Cl)cc(OCC=C(Cl)Cl)cc2Cl)cc1 [Compound 5.6]
inhibition at 400 ppm (Spodoptera littoralis; [1]): > 80% | inhibition at 400 ppm (Heliothis virescens; [2]): > 80% | inhibition at 400 ppm (Plutella xylostella; [3]): > 80%

SMILES: O=[N+]([O-])c1cccc(COCc2c(Cl)cc(OCC=C(Cl)Cl)cc2Cl)c1 [Compound 5.9, 1,3-dichloro-5-(3,3-dichloroallyloxy)-2-(3-nitrobenzyloxymethyl)-benzene]
inhibition at 400 ppm (Heliothis virescens): > 80% | inhibition at 400 ppm (Plutella xylostella): > 80%

SMILES: ClC(Cl)=CCOc1cc(Cl)c(COCc2cnc(Cl)c(Cl)c2)c(Cl)c1 [Compound 5.14]
inhibition at 400 ppm (Spodoptera littoralis): > 80% | inhibition at 400 ppm (Heliothis virescens): > 80% | inhibition at 400 ppm (Plutella xylostella): > 80%

melting point: 215 to 216 °C
SMILES: O=C(NCc1c(Cl)cc(OCC=C(Cl)Cl)cc1Cl)Nc1ccccc1C(F)(F)F [Compound 6.23, 1-[2,6-dichloro-4-(3,3-dichloroallyloxy)-benzyl]-3-(2-trifluoromethylphenyl)-urea]
inhibition at 400 ppm (Spodoptera littoralis; [1]): > 80% | inhibition at 400 ppm (Heliothis virescens; [2]): > 80% | inhibition at 400 ppm (Plutella xylostella; [3]): > 80%

SMILES: COC(=O)COCc1c(Cl)cc(OCC=C(Cl)Cl)cc1Cl [Compound 7.5]
inhibition at 400 ppm (Spodoptera littoralis; [1]): > 80% | inhibition at 400 ppm (Heliothis virescens; [2]): > 80% | inhibition at 400 ppm (Plutella xylostella; [3]): > 80%

SMILES: O=C(OCCOCc1c(Cl)cc(OCC=C(Cl)Cl)cc1Cl)c1ccc(C(F)(F)F)cc1 [Compound 8.11]
inhibition at 400 ppm (Spodoptera littoralis; [1]): > 80%

SMILES: O=C(OCCOCc1c(Cl)cc(OCC=C(Cl)Cl)cc1Cl)c1ccc(OC(F)(F)F)cc1 [Compound 8.12]
inhibition at 400 ppm (Spodoptera littoralis; [1]): > 80% | inhibition at 400 ppm (Heliothis virescens; [2]): > 80% | inhibition at 400 ppm (Plutella xylostella; [3]): > 80%
